# Laboratory results taken from US7465755B2, “Hydrazide derivatives as prostaglandin receptors modulators” (Laboratoires Serono SA, priority 2003, dated 2008).
# Key:
# h-EP2 [1] = target: T1, h-EP2 (Homo sapiens, UniProt P43116); test: Prostaglandin EP2 receptor binding assay (3H-PGE2 SPA); settings: EP2 receptor membranes, 20 nM 3H-PGE2, pH 6.0, 2 hrs room temperature
# Method: Compounds of the invention were tested in an EP2 receptor binding assay of the following protocol. As referred to herein, the term an “EP2 receptor binding assay” designates the following protocol.
# (§1) A mixture containing 20 μg of EP2 receptor membranes, 0.5 mg of wheat germ agglutinin coated PVT-SPA beads, with or without compound of the invention (25 μl per well) or 10 μM of cold PGE2 at 1% DMSO and 20 nM ^3H-PGE2 in assay buffer containing 25 mM MES, 10 mM MgCl2, 1 mM EDTA, pH 6.0 are incubated in Corning 3600 plates on a plate shaker for 2 hrs at room temperature. ^3H-PGE2 binding is evaluated by counting the plates on the top count using the ^3H SPA dpm2 program. The percentage of binding and Ki value for inhibitors are calculated based on the one site competition parameter using the Graphpad® prism program.
# h-EP4 [2] = target: T2, h-EP4 (Homo sapiens, UniProt P35408); test: EP4 receptor binding assay (3H-PGE2 SPA); settings: EP4 receptor membranes, 20 nM 3H-PGE2, pH 6.0, 2 hrs room temperature
# Method: Compounds of the invention were tested in an EP4 receptor binding assay of the following protocol.
# as §1, with “EP4” for “EP2”, “compounds” for “compound”
# h-EP2 [3] = target: T1, h-EP2; test: EP2 total cAMP assay in HEK293-EBNA cells transfected with pCEP4-hEP2; format: cell-based; settings: 1 hour 37° C.
# Method: Therefore, the compounds of the invention are tested for their ability in modulating cAMP levels in cells over-expressing EP2 or EP4 (Example 25 below) receptors.
# (§2) Compounds of the invention are tested in a total cAMP assay as follows. HEK293-EBNA cells transfected with pCEP4-hEP2 receptors are seeded in 96 well opaque plate (Costar #3917) at 4×10^4 cells per well in 100 μl of culture medium (D-MEM/F12 supplemented with 10% FBS, […] L-glutamine, and 250 μg/ml of hygromycin; all from Gibco BRL) and incubated at 37° C. After overnight incubation, the medium is removed from each well and replaced with 45 μl of assay medium consisted of phenol red free D-MEM/F-12, 0.1% BSA (Gibco BRL) and 0.1 mM 3-isobutyl-1-methyl-xanthine (Sigma). After 15 minutes of incubation at 37° C., 16-16-dimethyl PGE-2 or compounds at desired concentrations in 20 μl of assay medium are added to cells and further incubated at 37° C. for 1 hour. Total cAMP (intra- and extra-cellular) is measured by using a cAMP-screen ELISA System (Tropix, #CS1000).
# h-EP4 [4] = target: T2, h-EP4; test: EP4 total cAMP assay in HEK293-EBNA cells transfected with hEP4; format: cell-based; settings: 1 hour 37° C.
# Method: as §2, with “pCFP4-hEP4” for “pCEP4-hEP2”
# [5] = test system: hepatitis B viral replication; settings: oral administration, chronic hepatitis B patients; cited from earlier work
# T1 sequence (P43116 whole entry): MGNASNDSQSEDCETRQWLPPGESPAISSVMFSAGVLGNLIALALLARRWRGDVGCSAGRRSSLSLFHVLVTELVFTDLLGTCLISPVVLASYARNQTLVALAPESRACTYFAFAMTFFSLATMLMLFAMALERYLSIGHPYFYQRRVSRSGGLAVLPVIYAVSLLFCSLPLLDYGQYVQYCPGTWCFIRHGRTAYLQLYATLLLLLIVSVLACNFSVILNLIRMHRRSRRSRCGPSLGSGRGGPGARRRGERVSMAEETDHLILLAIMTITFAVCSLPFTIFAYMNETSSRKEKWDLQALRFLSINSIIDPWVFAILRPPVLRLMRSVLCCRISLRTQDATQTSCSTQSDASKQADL
# T2 sequence (P35408 whole entry): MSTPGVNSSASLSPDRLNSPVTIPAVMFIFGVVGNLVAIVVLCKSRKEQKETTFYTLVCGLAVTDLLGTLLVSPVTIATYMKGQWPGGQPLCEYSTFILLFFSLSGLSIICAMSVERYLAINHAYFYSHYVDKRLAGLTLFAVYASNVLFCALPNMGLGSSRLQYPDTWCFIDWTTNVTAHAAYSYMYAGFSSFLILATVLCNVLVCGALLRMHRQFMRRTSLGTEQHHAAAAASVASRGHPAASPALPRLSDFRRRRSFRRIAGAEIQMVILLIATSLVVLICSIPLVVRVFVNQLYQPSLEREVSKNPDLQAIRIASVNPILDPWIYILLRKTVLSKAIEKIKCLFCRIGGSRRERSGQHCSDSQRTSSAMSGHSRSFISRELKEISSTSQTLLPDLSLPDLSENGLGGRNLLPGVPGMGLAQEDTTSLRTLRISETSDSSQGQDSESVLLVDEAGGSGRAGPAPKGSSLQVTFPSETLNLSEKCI
Structure (SMILES),Ki (h-EP2 [1]),Ki (h-EP4 [2]),other results
"CCCCCC(O)CCNN(CCc1ccc(C(=O)O)cc1)C(C)=O (stereo not drawn) [Example 2, 4-{2-[1-acetyl-2-(3-hydroxyoctyl)hydrazino]ethyl}benzoic acid]",32900 nM,400 nM,EC50 (h-EP2 [3]): 6030 nM
"CC(=O)N(CCc1ccc(C(=O)O)cc1)NCCC(O)Cc1cccc(C(F)(F)F)c1 (stereo not drawn) [Example 4, 4-[2-(1-acetyl-2-{3hydroxy-4-[3-(trifluoromethyl)phenyl]butyl}hydrazino)ethyl]benzoic acid]",4450 nM,530 nM,EC50 (h-EP4 [4]): 0.4 nM
"CC(C)C(=O)N(CCc1ccc(C(=O)O)cc1)NCCC(O)Cc1cccc(C(F)(F)F)c1 (stereo not drawn) [Example 6, 4-[2-(2-{3-hydroxy-4-[3-(trifluoromethyl)phenyl]butyl}-1-isobutyryl hydrazino)ethyl]benzoic acid]",,332 nM,
"CC(=O)N(CCc1ccc(C(=O)O)cc1)NCCC(O)Cc1cccc(C#Cc2ccccc2)c1 (stereo not drawn) [Example 7, 4-[2-(1-acetyl-2-{3-hydroxy-4-[3-(phenylethynyl)phenyl]butyl}hydrazino)ethyl]benzoic acid]",4210 nM,45 nM,EC50 (h-EP4 [4]): 0.15 nM
"CC(=O)N(CCc1ccc(C(=O)O)cc1)NCCC(O)Cc1cccc(-c2ccccc2)c1 (stereo not drawn) [Example 8, 4-(2-{1-acetyl-2-[4-(1,1′-biphenyl-3-yl)-3-hydroxybutyl]hydrazino}ethyl)benzoic acid]",,115 nM,
"CC(=O)N(CCc1ccc(C(=O)O)cc1)NCCC(O)Cc1cccc(Br)c1 (stereo not drawn) [Example 9, 4-(2-{1-acetyl-2-[4-(3-bromophenyl)-3-hydroxybutyl]hydrazino}ethyl) benzoic acid]",,149 nM,
"CC(=O)N(CCc1ccc(C(=O)O)cc1)NCCC(O)Cc1cccc(I)c1 (stereo not drawn) [Example 10, 4-(2-{1-acetyl-2-[3-hydroxy-4-(3-iodophenyl)butyl]hydrazino}ethyl)benzoic acid]",,97 nM,
"C#Cc1cccc(CC(O)CCNN(CCc2ccc(C(=O)O)cc2)C(C)=O)c1 (stereo not drawn) [Example 16, 4-(2-{1-acetyl-2-[4-(3ethynylphenyl)-3-hydroxybutyl]hydrazino}ethyl) benzoic acid]",,131 nM,
"CCCCC[C@H](O)/C=C/[C@H]1[C@H](O)CC(=O)[C@@H]1C/C=C\CCCC(=O)O [PGE2, Prostaglandin E2]",,,patients with sustained loss of viral replication [5]: 47%
